From patent US7495027B2, “3-aryl-4-hydroxyfuranone compounds and the human and animal health use thereof” (Wyeth, priority 2003, dated 2009)
Values after ≈ are worked out from the molar mass of the structure shown. Read-outs that look alike come from different tables or passages of the source.

What was measured:
staphylococci = experiment: Minimum inhibitory concentration, microdilution broth method, staphylococci; format: cell-based; conditions: Mueller-Hinton broth, 18-22 hours at 35° C.; for MIC: Staphylococcus aureus
Summary of the method: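 Following NCCLS standard M7-A5, MICs were determined by microdilution in Mueller-Hinton broth, with 5% horse blood added for streptococci.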

[1] = molecular target: T1, S. aureus Uridine-diphosphate-N-acetvimuramoyl: L-alanine lipase, MurC (Staphylococcus aureus, UniProt Q2FXJ0); experiment: biochemical
T1 sequence (Q2FXJ0 1-437): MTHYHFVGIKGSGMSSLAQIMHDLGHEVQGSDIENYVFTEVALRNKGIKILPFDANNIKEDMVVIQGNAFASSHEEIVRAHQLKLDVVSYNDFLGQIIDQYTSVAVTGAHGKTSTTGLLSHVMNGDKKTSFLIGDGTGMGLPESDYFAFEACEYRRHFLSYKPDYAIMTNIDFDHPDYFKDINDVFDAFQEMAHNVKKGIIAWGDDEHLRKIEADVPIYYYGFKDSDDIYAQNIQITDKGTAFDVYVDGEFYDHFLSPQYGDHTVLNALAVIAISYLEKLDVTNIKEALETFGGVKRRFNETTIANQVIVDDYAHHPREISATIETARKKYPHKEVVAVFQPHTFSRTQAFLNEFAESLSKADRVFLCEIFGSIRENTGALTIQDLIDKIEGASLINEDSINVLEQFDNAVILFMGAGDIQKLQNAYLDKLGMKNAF
Summary of the method: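 MurC assay: enzyme (E. coli 100 μg/mL, S. aureus 70 μg/mL stock) with L-Ala and test compound, pre-incubated 10 min at 23 °C, then UDP-MurNac added, 10 min at 37 °C. Phosphate released detected by malachite green–molybdate at 660 nm; IC50 by linear regression.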

[2] = molecular target: T2, S. aureus UDP-N-acetylglucosamine enolpyruvoyl transferase, MurA (Staphylococcus aureus, UniProt P84058); experiment: Inhibitory activity against MurA (S. aureus); format: biochemical; conditions: (S) S. aureus enzyme
T2 sequence (P84058 1-421): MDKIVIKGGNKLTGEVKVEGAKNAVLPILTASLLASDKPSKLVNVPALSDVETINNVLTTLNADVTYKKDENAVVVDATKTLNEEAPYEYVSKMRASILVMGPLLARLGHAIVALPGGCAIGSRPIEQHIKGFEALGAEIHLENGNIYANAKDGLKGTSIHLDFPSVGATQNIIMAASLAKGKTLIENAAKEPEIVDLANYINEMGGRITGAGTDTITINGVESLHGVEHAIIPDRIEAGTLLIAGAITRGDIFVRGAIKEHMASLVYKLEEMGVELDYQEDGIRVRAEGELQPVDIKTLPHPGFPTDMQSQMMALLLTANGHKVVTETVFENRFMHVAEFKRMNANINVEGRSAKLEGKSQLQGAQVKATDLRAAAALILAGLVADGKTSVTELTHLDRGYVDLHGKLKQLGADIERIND
Description: Evaluation of the Inhibitory Activity of Test Compounds Against Enzymes which Catalyze Bacterial Cell Wall Biosynthesis
S. aureus and E. coli UDP-N-acetylglucosamine enolpyruvoyl transferase, MurA
Preparation of Enzyme Solution:
The enzyme solution is prepared by admixing the following: 50 mM Tris/HCl pH 8.0, […] 1 M Tris, 5 mM DTT, […] 1 M DTT, 20% Glycerol 4 ml 50% Glycerol, add water to 10 ml.
Preparation of Stop Solution:
The stop solution is prepared by mixing the following: 4.2% ammonium molybdate in 4N HCl, 8.4 g/200 ml 4N HCl, 0.045% malachite green, 90 mg/200 ml water, then stir 1 part ammonium molybdate with 2 parts malachite green for 30 min.
A procedure similar to that described by C. T. Walsh in Biochemistry 33, 10646-10651, is used to evaluate the inhibitory activity of test compounds against MurA, the enzyme which catalyzes the first step of bacterial cell wall biosynthesis. Experiments are performed by adding a solution of test compound (in a mixture of dimethylsulfoxide and water) and an enzyme solution to a well. After a pre-incubation period of 10 mintues at 37° C., Tris/BME buffer and assay buffer are added. A start point optical density (OD0) reading is taken at 340 nm immediately following the addition of assay buffer. After incubation for 1 hr at 37° C., the stop solution is added and the color is allowed to develop for 30 minutes. An end point OD1 reading at […] is then taken. […]

[3] = S. aureus GC 1131, read-out: MIC S. aureus GC 1131
[4] = S. aureus GC 4543, read-out: MIC S. aureus GC 4543
[5] = (S) S. aureus enzyme, read-out: MurC IC50 (converted)

Row | SMILES | MIC (staphylococci; [3]) | MIC (staphylococci; [4]) | IC50 [1, 5] | IC50 [2] | MIC S. aureus GC 1131 (staphylococci; S. aureus GC 1131) | MIC S. aureus GC 4543 (staphylococci; S. aureus GC 4543) | MurC IC50 ([1]; (S) S. aureus enzyme) | MurA IC50 [2] | IC50 [1]
1 | COc1ccc(/C=C2\OC(=O)C(c3cc(Cl)cc(Cl)c3)=C2O)c2ccccc12 [Example 36] | 4 µg/mL (≈ 9.68 µM) | 4 µg/mL (≈ 9.68 µM) | 12.1 µM | 14.5 µM |  |  |  |  | 
2 | O=C1O/C(=C\c2ccc(N3CCOCC3)c3ccccc23)C(O)=C1c1cccc(Cl)c1 [Example 37] | 16 µg/mL (≈ 36.9 µM) | 16 µg/mL (≈ 36.9 µM) | 23 µM | > 57.6 µM |  |  |  |  | 
3 | O=C1O/C(=C\c2ccc(N3CCOCC3)c3ccccc23)C(O)=C1c1cc(Cl)cc(Cl)c1 [Example 38] | 8 µg/mL (≈ 17.1 µM) | 8 µg/mL (≈ 17.1 µM) | 14.9 µM | > 53.4 µM |  |  |  |  | 
4 | Cc1cc(/C=C2\OC(=O)C(c3cc(Cl)cc(Cl)c3)=C2O)ccc1-c1ccccc1OS(C)(=O)=O [Example 39] |  |  |  |  | 2 µg/mL (≈ 3.87 µM) | 4 µg/mL (≈ 7.73 µM) | 8 (S) μg/mL | 15 (S) μg/mL | 
5 | O=C1O/C(=C\c2cccc3ccccc23)C(O)=C1c1cc(Cl)cc(Cl)c1 [Example 70] | 2 µg/mL (≈ 5.22 µM) | 1 µg/mL (≈ 2.61 µM) | 20.9 µM | 39.1 µM |  |  |  |  | 
6 | O=C1O/C(=C\c2cccc3ccccc23)C(O)=C1c1ccc(C(F)(F)F)cc1 [Example 71] | 8 µg/mL (≈ 20.9 µM) | 8 µg/mL (≈ 20.9 µM) |  | > 65.4 µM |  |  |  |  | 52.3 µM
7 | COc1cccc(C2=C(O)/C(=C/c3cccc4ccccc34)OC2=O)c1 [Example 72] | > 128 µg/mL | > 128 µg/mL | > 72.6 µM | > 72.6 µM |  |  |  |  | 
8 | COC(=O)c1ccc(C2=C(O)/C(=C/c3cccc4ccccc34)OC2=O)cc1 [Example 74] | 64 µg/mL (≈ 172 µM) | > 128 µg/mL | 48.3 µM | > 67.1 µM |  |  |  |  | 
9 | CCOC(=O)c1cccc(C2=C(O)C(=Cc3cccc4ccccc34)OC2=O)c1 [Example 75] |  |  |  |  | 64 µg/mL (≈ 166 µM) | >128 µg/mL | 20 µg/mL | >25 (S) μg/mL | 
10 | O=Cc1cccc(C2=C(O)/C(=C/c3cccc4ccccc34)OC2=O)c1 [Example 76] | > 128 µg/mL | > 128 µg/mL | 52.6 µM | 17.5 µM |  |  |  |  | 
11 | O=C1O/C(=C\c2cccc3ccccc23)C(O)=C1c1cccc(C=NO)c1 [Example 77] |  |  |  |  | >128 µg/mL | 64 µg/mL (≈ 179 µM) | 15 µg/mL | >25 (S) μg/mL | 
12 | CN(C)c1ccc(/C=C2\OC(=O)C(c3ccc(Cl)cc3)=C2O)c2ccccc12 [Example 78] | 32 µg/mL (≈ 81.7 µM) | 32 µg/mL (≈ 81.7 µM) | 53.6 µM | > 63.8 µM |  |  |  |  | 
13 | CN(C)c1ccc(/C=C2\OC(=O)C(c3cc(Cl)cc(Cl)c3)=C2O)c2ccccc12 [Example 79] | 2 µg/mL (≈ 4.69 µM) | 1 µg/mL (≈ 2.35 µM) | 56.3 µM | 32.8 µM |  |  |  |  | 
14 | CN(C)c1ccc(C=C2OC(=O)C(c3cc(Cl)cc(Cl)c3)=C2O)c2ccccc12 [Example 80] |  |  |  |  | 2 µg/mL (≈ 4.69 µM) | 1 µg/mL (≈ 2.35 µM) | 18 (S) μg/mL | 15 (S) μg/mL | 
15 | CN(C)c1ccc(/C=C2\OC(=O)C(c3ccc(C(F)(F)F)cc3)=C2O)c2ccccc12 [Example 81] | 8 µg/mL (≈ 18.8 µM) | 8 µg/mL (≈ 18.8 µM) | 37.6 µM | > 58.8 µM |  |  |  |  | 
16 | O=C1O/C(=C\c2cccc(-c3cc(Cl)cc(Cl)c3)c2)C(O)=C1c1cc(Cl)cc(Cl)c1 [Example 136] | 0.25 µg/mL (≈ 0.523 µM) | 0.25 µg/mL (≈ 0.523 µM) | > 52.3 µM | 2.09 µM |  |  |  |  | 
17 | O=C1O/C(=C\c2ccccc2-c2ccc(Cl)cc2)C(O)=C1c1ccc(Cl)cc1 [Example 137] | 8 µg/mL (≈ 19.5 µM) | 8 µg/mL (≈ 19.5 µM) | 56.2 µM | 31.8 µM |  |  |  |  | 
18 | O=C1O/C(=C\c2ccc(Cl)cc2)C(O)=C1c1ccc(-c2ccccc2)c(F)c1 [Example 138] | 4 µg/mL (≈ 10.2 µM) | 4 µg/mL (≈ 10.2 µM) | 20.4 µM | 17.8 µM |  |  |  |  | 
19 | O=C1O/C(=C\c2ccccc2-c2cccc(Cl)c2)C(O)=C1c1cccc(Cl)c1 [Example 140] | 1 µg/mL (≈ 2.44 µM) | 1 µg/mL (≈ 2.44 µM) | 19.5 µM | 26.9 µM |  |  |  |  | 
20 | O=C1O/C(=C\c2ccccc2-c2ccc(Cl)c(Cl)c2)C(O)=C1c1ccc(Cl)c(Cl)c1 [Example 141] | 0.5 µg/mL (≈ 1.05 µM) | 0.25 µg/mL (≈ 0.523 µM) | > 52.3 µM | 6.27 µM |  |  |  |  | 
21 | O=C1O/C(=C\c2cc(C(F)(F)F)ccc2Cl)C(O)=C1c1ccc(N2CCOCC2)c(F)c1 [Example 142] |  |  |  |  | 64 µg/mL (≈ 136 µM) | >128 µg/mL | >25 (S) μg/mL | >25 (S) μg/mL | 
22 | O=C1O/C(=C\c2ccc(-c3ccccc3)cc2)C(O)=C1c1csc2ccccc12 [Example 143] | 8 µg/mL (≈ 20.2 µM) | 8 µg/mL (≈ 20.2 µM) | 12.6 µM | > 63.1 µM |  |  |  |  | 
23 | O=C1O/C(=C\c2ccc(-c3ccccc3)cc2)C(O)=C1c1cccs1 [Example 144] | 16 µg/mL (≈ 46.2 µM) | 16 µg/mL (≈ 46.2 µM) | 28.9 µM | > 72.2 µM |  |  |  |  | 
